Assay results from ChEMBL document CHEMBL3132751, “Crafting precise multivalent architectures” (Medchemcomm, 2013).

Target: T1, CD209 antigen (Homo sapiens, UniProt Q9NNX6)
T1 sequence (Q9NNX6 whole entry): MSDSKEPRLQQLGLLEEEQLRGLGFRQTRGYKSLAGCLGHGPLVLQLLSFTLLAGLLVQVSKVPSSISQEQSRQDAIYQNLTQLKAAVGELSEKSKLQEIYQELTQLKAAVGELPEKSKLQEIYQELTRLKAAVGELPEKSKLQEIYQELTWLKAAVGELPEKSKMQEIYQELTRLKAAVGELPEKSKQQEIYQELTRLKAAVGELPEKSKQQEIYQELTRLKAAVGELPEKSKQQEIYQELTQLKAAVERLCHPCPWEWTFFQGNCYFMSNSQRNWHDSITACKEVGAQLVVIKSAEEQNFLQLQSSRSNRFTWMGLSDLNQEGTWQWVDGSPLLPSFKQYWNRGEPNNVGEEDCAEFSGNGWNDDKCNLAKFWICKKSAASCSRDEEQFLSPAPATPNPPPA
Assay: Binding affinity to DC-SIGN (unknown origin)

| Kd [mM] | Structure (SMILES) |
| --- | --- |
| 8.7 | CC(=O)N[C@H](C=O)[C@@H](O)[C@H](O)[C@H](O)CO |
| 6.7 | C[C@H](O)[C@@H](O)[C@@H](O)[C@H](O)C=O [L-FUCOSE] |
